Measurements published in US20210330611A1, “THERAPY FOR NEUROLOGICAL DISEASES/DISORDERS” (priority 2020, published 2021).
Several values for one entry are separate records, joined by “and”; a condition that tells them apart may be missing. Equal entries are not always repeated. Structures can show the parent of a compound that is named as a salt. Where two headings read alike, the source gives them in different places.

Columns and labels:
[1] = test system: fibrin-induced microglia activation; assay: Image-based assay of fibrin-induced microglia activation (HTS and dose response); type: cell-based, rat; details: for inhibition at 10 µM: Rattus norvegicus, Microglia, read-out: Fibrin % inhibition
[2] = test system: fibrin- and LPS-induced microglia activation; assay: cells; type: cell-based, rat; details: for inhibition at 10 µM: Rattus norvegicus, Microglia
[3] = test system: LPS-induced microglia activation; assay: Image-based assay of LPS-induced microglia activation (HTS and dose response); type: cell-based, rat; details: for inhibition at 10 µM: Rattus norvegicus, Microglia, read-out: LPS % inhibition
primary rat microglia [4] = test system: primary rat microglia;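 on Fibrin % cell toxicity: share of dead cells sized under 150 µm2 at 10 µM in fibrin-stimulated microglia HTS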
primary rat microglia [5] = test system: primary rat microglia; remark: listed apart in the source;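 on Fibrin % cell toxicity: share of dead cells sized under 150 µm2 at 10 µM in fibrin-stimulated microglia HTS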
[6] = primary HTS, 10 μM, fibrin-stimulated primary microglia
[7] = quadrant by fibrin and LPS inhibition in HTS of 1907 compounds
[8] = primary microglia HTS, fibrin stimulation, increased cell size (>800 μm^2) as marker of activation
[9] = 48 h, primary microglia HTS, LPS stimulation, increased cell size (>800 μm^2) as marker of activation

Compound	Quadrant (FIG. 5b) [2]	Fibrin % cell toxicity (primary rat microglia [4]; rat) [%]	LPS % cell toxicity (primary rat microglia [5]; rat) [%]	further results
O=C(O)CC(O)(CC(=O)O)C(=O)O [Citric Acid]	Q4	1	0	inhibition at 10 µM [1]: -36%; inhibition at 10 µM [3]: -6%
CC(=O)OC1CC2CCC1(C)C2(C)C (stereo not drawn) [Bornyl Acetate]		0	0	inhibition at 10 µM [1, 6]: -38%; Quadrant (FIG. 5b) ([2]; primary HTS, 10 μM): Q4; inhibition at 10 µM ([3]; primary HTS, 10 μM, LPS-stimulated primary microglia): 2%
N[C@@H](Cc1ccc(O)cc1)C(=O)O [Tyrosine]		1	1	inhibition at 10 µM ([1]; primary microglia HTS, 10 μM, fibrin-stimulated, cell size >800 μm^2 as marker of activation): -7%; Quadrant (FIG. 5b) ([2]; HTS of 1907 compounds, quadrant by fibrin and LPS inhibition): Q4; inhibition at 10 µM ([3]; primary microglia HTS, 10 μM, LPS-stimulated, cell size >800 μm^2 as marker of activation): 21%
Nc1nc(=O)n([C@@H]2CS[C@H](CO)O2)cc1F [Emtricitabine]	Q4	1	1	inhibition at 10 µM [1]: -73%; inhibition at 10 µM [3]: 11%
N[C@@H]1C[C@H]1c1ccccc1.N[C@H]1C[C@@H]1c1ccccc1.O=S(=O)(O)O [Tranylcypromine Sulfate]	Q4			Fibrin % inhibition ([1]; 10 µM): 3%; LPS % inhibition ([3]; 10 µM): 17%; Fibrin % cell toxicity (primary rat microglia [4]): 0%; LPS % cell toxicity (primary rat microglia [5]): 0%
Cn1cc[nH]c1=S [Methimazole]	Q4	0	0	inhibition at 10 µM [1]: -29%; inhibition at 10 µM ([3]; 48 h): 12%
CCN(CC)CCOC(=O)C1(C2CCCCC2)CCCCC1 [Dicyclomine]	Q4	0	0	
C1CNCCN1 [Piperazine]	Q4	0	0	inhibition at 10 µM [1]: -3%; inhibition at 10 µM ([3]; 48 h): 16%
CC(C)OC(=O)C(C)(C)Oc1ccc(C(=O)c2ccc(Cl)cc2)cc1 [Fenofibrate]		1	0	Quadrant (FIG. 5b) ([2]; classification by fibrin and LPS inhibition, HTS at 10 μM): Q4
Clc1ccc(CO/N=C(\Cn2ccnc2)c2ccc(Cl)cc2Cl)c(Cl)c1 [Oxiconazole]	Q4	1	1	
C(=C\c1ccccc1)/CN1CCN(C(c2ccccc2)c2ccccc2)CC1 [Cinnarizine]	Q4	1	0	
CC(=O)Nc1ccc(O)cc1 [Acetaminophen]		0	0	inhibition at 10 µM [1]: 14%; inhibition at 10 µM [3]: 22%
O=c1[nH]c(=O)n([C@H]2C[C@H](O)[C@@H](CO)O2)cc1F [Floxuridine]		1	0	Quadrant (FIG. 5b) [2, 7]: Q4
CN(C)CCC=C1c2ccccc2COc2ccccc21 [Doxepin]	Q4	1	0	LPS % inhibition ([3]; 10 µM): 13%; inhibition at 10 µM [3]: 16%
CS(=O)(=O)CCNCc1ccc(-c2ccc3ncnc(Nc4ccc(OCc5cccc(F)c5)c(Cl)c4)c3c2)o1 [Lapatinib]		1	0	Quadrant (FIG. 5b) [2, 7]: Q4
CN[C@H]1CC[C@@H](c2ccc(Cl)c(Cl)c2)c2ccccc21 [Sertraline]	Q4	1	0	
CC(=O)[O-].[Hg+][c]1ccccc1 [Phenylmercuric Acetate]		82	80	
Pyrethrins				Fibrin % cell toxicity (primary rat microglia [4]): 0%; LPS % cell toxicity (primary rat microglia [5]): 0%
CCCCCCCCCCCCCCCC[n+]1ccccc1 [Cetylpyridinium Bromide]	Q2	25	39	
NC(=O)C(c1ccccc1)(c1ccccc1)[C@@H]1CCN(CCc2ccc3c(c2)CCO3)C1 [Darifenacin Hydrobromide]		1	0	
COc1cc2nc(N3CCN(C(=O)c4ccco4)CC3)nc(N)c2cc1OC [Prazosin]		3	77	inhibition at 10 µM [1, 8]: 43%; inhibition at 10 µM [3, 9]: 118%
CC1(C)S[C@@H]2[C@H](NC(=O)[C@H](N)c3ccc(O)cc3)C(=O)N2[C@H]1C(=O)O [Amoxicillin]	Q4	0		inhibition at 10 µM [1]: -14%; inhibition at 10 µM [3]: 12%

Compound	Quadrant (FIG. 5b) [2]	Fibrin % cell toxicity (primary rat microglia [4]; rat) [%]	LPS % cell toxicity (primary rat microglia [5]; rat) [%]	further results
Clc1ccccc1CN1CCc2sccc2C1 [Ticlopidine]		1	0	inhibition at 10 µM [1]: -13%; inhibition at 10 µM [3]: 22%
C[C@@H]1O[C@@H](O[C@H]2C[C@@H](O)[C@]3(CO)[C@H]4[C@H](O)C[C@]5(C)[C@@H](C6=CC(=O)OC6)CC[C@]5(O)[C@@H]4CC[C@]3(O)C2)[C@H](O)[C@H](O)[C@H]1O [Ouabain]		0	0	Quadrant (FIG. 5b) [2, 7]: Q4
CC1(C)NC(=O)N(c2ccc([N+](=O)[O-])c(C(F)(F)F)c2)C1=O [Nilutamide]		1	0	Quadrant (FIG. 5b) [2, 7]: Q4
CN(C)CCN(Cc1cccs1)c1ccccn1 [Methapyrilene]	Q4	1	0	
CN1C2CCCC1CC(NC(=O)c1nn(C)c3ccccc13)C2 (stereo not drawn) [Granisetron Hydrochloride]		0	0	Quadrant (FIG. 5b) [2, 7]: Q4
C[C@@H]1C[C@H]2[C@@H]3CCC4=CC(=O)C=C[C@]4(C)[C@@]3(F)[C@@H](O)C[C@]2(C)[C@@]1(O)C(=O)COP(=O)(O)O [Dexamethasone sodium phosphate, reference compound]	Q2	2	3	inhibition at 10 µM ([2]; read-out: Cherry-picked Hit (Suppl. Table 7)): > 50%; inhibition at 10 µM ([2]; read-out: Hit): > 50%
CN(C)CCCN1c2ccccc2CCc2ccccc21 [Imipramine]		0	1	inhibition at 10 µM [1, 8]: -4%; inhibition at 10 µM [3, 9]: 60%
CN1C2CCCC1CC(NC(=O)c1nn(C)c3ccccc13)C2 (stereo not drawn) [Granisetron]		1	0	Quadrant (FIG. 5b) [2, 7]: Q4
N[C@@H](Cc1cc(I)c(Oc2ccc(O)c(I)c2)c(I)c1)C(=O)O [Liothyronine]	Q4	1	1	inhibition at 10 µM ([3]; 48 h): 21%
Clc1ccc(CSC(Cn2ccnc2)c2ccc(Cl)cc2Cl)cc1 (stereo not drawn) [Sulconazole]	Q4	1	1	
C[C@@H]1C[C@H]2[C@@H]3CCC4=CC(=O)C=C[C@]4(C)[C@@]3(F)[C@@H](O)C[C@]2(C)[C@@]1(O)C(=O)COP(=O)(O)O [Dexamethasone Phosphate]		5	2	Quadrant (FIG. 5b) [2, 7]: Q2
Betamethasone sodium phosphate [reference compound]	Q2			Cherry-picked Hit (Suppl. Table 7) [2]: HIT (key: HIT: Hits were defined as molecules that exhibited greater than 50% inhibition of either fibrin or LPS activation); Hit [2]: HIT (key: HIT: Hits were defined as molecules that exhibited greater than 50% inhibition of either fibrin or LPS activation); Fibrin % cell toxicity (primary rat microglia [4]): 2%; LPS % cell toxicity (primary rat microglia [5]): 3%
CCC1(c2ccccc2)C(=O)NCNC1=O [Primidone]	Q4	1		inhibition at 10 µM [1]: -15%; inhibition at 10 µM ([3]; 48 h): 12%
O=C(CCCCCCC(=O)Nc1ccccc1)NO [Vorinostat]		89	50	Quadrant (FIG. 5b) ([2]; quadrant by fibrin and LPS inhibition, HTS at 10 μM): Q2
C=C1CC[C@H](O)C/C1=C/C=C1\CCC[C@]2(C)[C@@H]([C@H](C)CCCC(C)C)CC[C@@H]12 [Cholecalciferol]		1	0	Fibrin % inhibition [1, 6]: −10% and −17%; Quadrant (FIG. 5b) ([2]; primary HTS, 10 μM): Q4
Cinnarazine	Q4			Fibrin % cell toxicity (primary rat microglia [4]): 1%; LPS % cell toxicity (primary rat microglia [5]): 0%
[H]/N=C(/N)N/C(=N/[H])NCCc1ccccc1 [Phenformin]	Q4	1		inhibition at 10 µM [1]: -30%; inhibition at 10 µM ([3]; 48 h): 13%
CC(C)Cn1cnc2c(N)nc3ccccc3c21 [Imiquimod]	Q4	0	0	
C#C[C@]1(O)CC[C@H]2[C@@H]3CCC4=CC(=O)CC[C@@H]4[C@H]3CC[C@@]21C [Norethindrone]	Q4	0		inhibition at 10 µM [1]: 9%; LPS % inhibition [3]: 15%
Cc1ccccc1C(OCCN(C)C)c1ccccc1 (stereo not drawn) [Orphenadrine]	Q4	0	0	
CCOc1cc(NC(C)=O)ccc1C(=O)OC [Ethopabate]	Q4	0	0	
